Consider eight compounds from ChEMBL document CHEMBL3046727, “Antifungal and insect antifeedant 2-phenylethanol esters from the liverwort Balantiopsis cancellata from Chile” (J Agric Food Chem, 2005).

The test system of one data set is Spodoptera littoralis. The data set can be described thus: Feeding deterrence in Spodoptera littoralis in compound treated lettuce disk assessed as feeding ratio measured as area consumed of treated disks per area consumed of the control disk at 20 ug/disk by disk choice assay. The data set is classed as functional.
The subject of a further data set is Artemia salina. The data set can be described thus: Toxicity in Artemia salina (brine shrimp) measured after 24 hr. It counts as organism-based. To be noted: in vivo.
Data set [1] concerns Cladosporium herbarum. The data set can be described thus: Antifungal activity against Cladosporium herbarum assessed as growth inhibition at 23 degC measured after 72 hr. The data set is classed as functional.
Data set [2] has as its system Cladosporium herbarum. The data set can be described thus: Antifungal activity against Cladosporium herbarum assessed as growth inhibition at 0.006 mg/mL at 23 degC measured after 72 hr. The data set is classed as functional, organism-based.

The source made the active and inactive calls. No cut-off for these calls is given here.

A word on the LC50: it is the concentration lethal to half of the exposed cells or organisms. Read a high LC50 as lower toxicity. Regarding `O=C(/C=C\c1ccccc1)OCCc1ccccc1`, in the data set on Spodoptera littoralis, the Ratio came to 0.5. The LC50 with Artemia salina is less than 2.5 ppm.

`Cl[C@H]1[C@H](Cl)[C@@H](Cl)[C@@H](Cl)[C@H](Cl)[C@H]1Cl` [LINDANE] showed an LC50 in the data set on Artemia salina of 7.2 ppm.

On to `O=C(OC[C@H](O)c1ccccc1)c1ccccc1`, for which the MIC with Cladosporium herbarum [1] is 0.05 mg. Moreover, in the data set with Spodoptera littoralis, the Ratio is on record as 0.73. This compound registered an LC50 with Artemia salina of 7.4 ppm.

Take `O=C1C2CC=CCC2C(=O)N1SC(Cl)(Cl)Cl` (configuration not stated) [CAPTAN]: the MIC in the data set on Cladosporium herbarum [1] was determined as 0.02 mg.

For the compound `CC(=O)N1CCN(c2ccc(OCC3COC(Cn4ccnc4)(c4ccc(Cl)cc4Cl)O3)cc2)CC1` (configuration not stated) [KETOCONAZOLE], the MIC in the data set on Cladosporium herbarum [1] turned out to be 0.01 mg.

In the case of `O=C(/C=C/c1ccccc1)OCCc1ccccc1` [PHENETHYL CINNAMATE], the Ratio with Spodoptera littoralis is recorded as 0.96. This compound also came in with a 50% lethal concentration (LC50) in the data set on Artemia salina of less than 2.5 ppm.

For the compound `CS/C=C/C(=O)OCCc1ccccc1` [ISOTACHIN B], the “growth inhibition (GI)” value with Cladosporium herbarum [2] was “Active”. Moreover, the MIC in the data set on Cladosporium herbarum [1] was determined as 0.006 mg. Moreover, the Ratio with Spodoptera littoralis was 0.44. In the data set on Artemia salina, this compound came in with an LC50 of less than 2.5 ppm.

As to `O=C(OCCc1ccccc1)c1ccccc1` [PHENETHYL BENZOATE], in the data set on Cladosporium herbarum [1], the MIC was 0.1 mg. Besides, the Ratio in the data set on Spodoptera littoralis is reported as 0.56. In addition, the 50% lethal concentration (LC50) with Artemia salina is less than 2.5 ppm.
